Data: PubChem BioAssay AID1845203 (Molecular Pharmacology Branch, DTP, NCI, 2023)
Several values for one entry are separate records, joined by “and”; a condition that tells them apart may be missing. Equal values may be shown once.

Test system: G-401 tumor spheroids, viability % test/control
Assay: Anticancer human tumor G-401 cell line growth inhibition;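 also: spheroids exposed to compound for 7 days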;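 as to viability, T/C: 100% = DMSO vehicle-treated spheroids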
Settings: spheroids with HUVEC and MSC; for viability, T/C: stronger effect = lower value
From the text: Multicellular complex tumor spheroid response to DNA repair inhibitors in combination with DNA-damaging drugs
This study explores the anticancer activities of DNA-damaging drugs and inhibitors of DNA damage repair, both as single agents and in combinations. Complex tumor spheroids comprised of malignant cells, endothelial cells and mesenchymal stem cells served as an in vitro model for human solid tumors. This model system incorporates physiologically relevant features and patient-derived or established malignant cell lines with clinically relevant genetic alterations from many tumor types. Twenty-six patient-derived or established malignant cell lines were evaluated representing sarcoma, melanoma, small cell lung cancer (SCLC), non-small cell lung cancer (NSCLC), as well as bladder, ovarian and pancreatic cancers. The concentration ranges selected for each drug and investigational agent were based upon clinically achievable concentrations if the clinical Cmax of the agent was known.
Compounds. The drugs and compounds olaparib (NSC753686), talazoparib (NSC767125), berzosertib (NSC777718), elimusertib (NSC800525), nedisertib (NSC802822), VX-984 (NSC792969), AZD-1390 (NSC803789), temozolomide (NSC362856), topotecan (NSC609699), trabectedin (NSC813783), staurosporine (NSC755774), and gemcitabine (NSC613327) were obtained from the National Cancer Institute (NCI) Developmental Therapeutics Program Chemical Repository. The FDA-approved anticancer drug set is available from the Developmental Therapeutics Program at https://dtp.cancer.gov/organization/dscb/obtaining/available_plates.htm. […] The stock solutions were prepared in dimethyl sulfoxide (DMSO, Sigma-Aldrich, St. Louis, MO, cat. D2650) at 400-fold the tested concentration and stored at -70 degrees C. Prior to their use, the stock solutions were diluted in fresh medium and the final DMSO concentration in the assay was 0.25% (v/v). All drugs and investigational agents were tested over a range starting from a high concentration at or near the clinical Cmax and decreasing in half-log increments. If the clinical Cmax for an agent had not been determined, the highest concentration tested was 10 microM.
Cell Lines. The patient-derived cancer cell (PDC) lines: 156681-154-R-J1-PDC, 283228-195-R-J1-PDC, 287954-098-R-J1-PDC, 292921-168-R-J2-PDC, 349418-098-R-PDC, 425362-245-T-J1-PDC, 556581-035-R-J1-PDC, and BL0293-F563-PDC were received from the NCI Patient-Derived Models Repository (PDMR, https://pdmr.cancer.gov). The established cell lines HS-SY-2 (RRID:CVCL_8719), MPNST, and SYO-1 (RRID:CVCL_7146) were obtained from the Sloan Kettering Institute. The alveolar soft parts sarcoma cell line ASPS-1 (RRID:CVCL_S738) was established at the NCI and grown from internal seed stocks. The following established cell lines were purchased from the American Type Culture Collection (ATCC, Manassas, VA): G-401 (ATCC, cat. CRL-1441, RRID:CVCL_0270), SW982 (ATCC, cat. HTB-93, RRID:CVCL_1734), VA-ES-BJ (ATCC, cat. CRL-2138, RRID:CVCL_1785), NCI-H719 (ATCC, cat. CRL-5837, RRID:CVCL_1582), NCI-H196 (ATCC, cat. CRL-5823, RRID:CVCL_1509), NCI-H841 (ATCC, cat. CRL-5845, RRID:CVCL_1595), NCI-H1618 (ATCC, cat. CRL-5879, RRID:CVCL_1480), NCI-H1876 (ATCC, cat. CRL-5902, RRID:CVCL_1503), DMS 114 (ATCC, cat. CRL-2066; RRID:CVCL_1174), NCI-H211 (ATCC, cat. CRL-5824; RRID:CVCL_1529), and SW 1271 (ATCC, cat. CRL-2177, RRID:CVCL_1716). The small cell lung cancer cell line COR-L88 was purchased from Sigma-Aldrich (cat. 92031917-1VL, RRID:CVCL_1141). The non-small cell lung cancer cell lines NCI-H226 (RRID:CVCL_1544) and NCI-H322M (RRID:CVCL_1557) were established at the NCI and grown from internal seed stocks. Pooled donor human umbilical vein endothelial cells (HUVEC, Lonza, cat. CC-2519) and human mesenchymal stem cells (hMSC, Lonza, cat. PT-2501) were purchased from Lonza (Walkersville, MD).
Cell Culture. All cells were maintained in an incubator at 37 degrees C and 5% CO2 with 95% humidity. […]

**Q.** For `Cn1nnc2c(C(N)=O)ncn2c1=O`, which viability, T/C (compound 1 µM) is on record?
**A.** 102% [middle of 10 runs]

**Q.** What about the viability, T/C (compound 3.16 µM) of the same compound?
**A.** 102% [middle of 10 runs]

**Q.** And the viability, T/C (compound 10 µM)?
**A.** 103% [middle of 10 runs]

**Q.** What about the viability, T/C (compound 31.6 µM) of the same compound?
**A.** 96.8% [middle of 10 runs]

**Q.** What about the viability, T/C (compound 100 µM) of the same compound?
**A.** 94.8% [middle of 9 runs]

**Q.** And the IC50 (compound alone, run of 12/02/2019)?
**A.** > 100000 nM

**Q.** For `[2H]c1nc(C)nc([2H])c1-c1cc(NC[C@@H](C)c2cccc3c(C(=O)NC)ccnc23)ncn1`, which viability, T/C (compound 0.0316 µM) is on record?
**A.** 104% and 105% and 96.6%

**Q.** And the viability, T/C (compound 0.1 µM)?
**A.** 108% and 98.9% and 97.7%

**Q.** What about the viability, T/C (compound 0.316 µM) of the same compound?
**A.** 103% and 105% and 98.1%

**Q.** What about the viability, T/C (compound 1 µM) of the same compound?
**A.** 102% and 98.9% and 98.6%

**Q.** And the viability, T/C (compound 3.16 µM)?
**A.** 105% and 103% and 98.3%

**Q.** And the viability, T/C (compound 10 µM)?
**A.** 104% and 103% and 98%

**Q.** And the IC50 (curve of compound)?
**A.** > 10000 nM

**Q.** How did the IC50 (curve of first compound, second compound 30 pM) turn out when `COc1cc(C)[nH]c(=O)c1CN1CCc2c(Cl)cc(C(OC)C3COC3)c(Cl)c2C1=O` (stereo not given) + COc1cc2c(cc1O)CCNC21CSC2c3c(OC(C)=O)c(C)c4c(c3C(COC1=O)N1C(O)C3Cc5cc(C)c(OC)c(O)c5C(C21)N3C)OCO4 was run?
**A.** 106 nM

**Q.** What about the IC50 (curve of first compound, second compound 94.9 pM) of the same compound?
**A.** 87 nM

**Q.** What about the IC50 (curve of first compound, second compound 0.0003 µM) of the same compound?
**A.** < 31.6 nM

**Q.** What about the IC50 (curve of first compound, second compound 0.000949 µM) of the same compound?
**A.** < 31.6 nM

**Q.** What about the IC50 (curve of first compound, second compound 0.003 µM) of the same compound?
**A.** < 31.6 nM

**Q.** What about the viability, T/C (second compound 30 pM, first compound 0.0316 µM) of the same compound?
**A.** 83.1%

**Q.** What about the viability, T/C (second compound 30 pM, first compound 0.1 µM) of the same compound?
**A.** 50.9%

**Q.** What about the viability, T/C (second compound 30 pM, first compound 0.316 µM) of the same compound?
**A.** 33.9%

**Q.** What about the viability, T/C (second compound 30 pM, first compound 1 µM) of the same compound?
**A.** 28.1%

**Q.** What about the viability, T/C (second compound 30 pM, first compound 3.16 µM) of the same compound?
**A.** 26.9%

**Q.** What about the viability, T/C (second compound 30 pM, first compound 10 µM) of the same compound?
**A.** 26.1%

**Q.** What about the viability, T/C (second compound 94.9 pM, first compound 0.0316 µM) of the same compound?
**A.** 74.1%

**Q.** And the viability, T/C (second compound 94.9 pM, first compound 0.1 µM)?
**A.** 44.6%

**Q.** What about the viability, T/C (second compound 94.9 pM, first compound 0.316 µM) of the same compound?
**A.** 36.1%

**Q.** What about the viability, T/C (second compound 94.9 pM, first compound 1 µM) of the same compound?
**A.** 27.3%

**Q.** What about the viability, T/C (second compound 94.9 pM, first compound 3.16 µM) of the same compound?
**A.** 22.7%

**Q.** And the viability, T/C (second compound 94.9 pM, first compound 10 µM)?
**A.** 22.8%

**Q.** And the viability, T/C (second compound 0.0003 µM, first compound 0.0316 µM)?
**A.** 33.1%

**Q.** And the viability, T/C (second compound 0.0003 µM, first compound 0.1 µM)?
**A.** 30.2%

**Q.** What about the viability, T/C (second compound 0.0003 µM, first compound 0.316 µM) of the same compound?
**A.** 23%

**Q.** What about the viability, T/C (second compound 0.0003 µM, first compound 1 µM) of the same compound?
**A.** 20.4%

**Q.** And the viability, T/C (second compound 0.0003 µM, first compound 3.16 µM)?
**A.** 18.4%

**Q.** What about the viability, T/C (second compound 0.0003 µM, first compound 10 µM) of the same compound?
**A.** 18.1%

**Q.** What about the viability, T/C (second compound 0.000949 µM, first compound 0.0316 µM) of the same compound?
**A.** 4.72%

**Q.** And the viability, T/C (second compound 0.000949 µM, first compound 0.1 µM)?
**A.** 5.11%

**Q.** What about the viability, T/C (second compound 0.000949 µM, first compound 0.316 µM) of the same compound?
**A.** 3.78%

**Q.** And the viability, T/C (second compound 0.000949 µM, first compound 1 µM)?
**A.** 4%

**Q.** What about the viability, T/C (second compound 0.000949 µM, first compound 3.16 µM) of the same compound?
**A.** 5.07%

**Q.** What about the viability, T/C (second compound 0.000949 µM, first compound 10 µM) of the same compound?
**A.** 3.13%

**Q.** And the viability, T/C (second compound 0.003 µM, first compound 0.0316 µM)?
**A.** 0.12%

**Q.** And the viability, T/C (second compound 0.003 µM, first compound 0.1 µM)?
**A.** 0.12%

**Q.** And the viability, T/C (second compound 0.003 µM, first compound 0.316 µM)?
**A.** 0.11%

**Q.** What about the viability, T/C (second compound 0.003 µM, first compound 1 µM) of the same compound?
**A.** 0.11%

**Q.** What about the viability, T/C (second compound 0.003 µM, first compound 3.16 µM) of the same compound?
**A.** 0.11%

**Q.** And the viability, T/C (second compound 0.003 µM, first compound 10 µM)?
**A.** 0.18%

**Q.** For `CC1COCCN1c1cc(-c2ccnn2C)c2ccnc(-c3ccn[nH]3)c2n1` (stereo not given), which viability, T/C (compound 0.0316 µM) is on record?
**A.** 67% and 79% and 90.9%

**Q.** What about the viability, T/C (compound 0.1 µM) of the same compound?
**A.** 34.7% and 42.4% and 56%

**Q.** What about the viability, T/C (compound 0.316 µM) of the same compound?
**A.** 19.1% and 24.4% and 31.2%

**Q.** What about the viability, T/C (compound 1 µM) of the same compound?
**A.** 13.1% and 17.3% and 18.1%

**Q.** And the viability, T/C (compound 3.16 µM)?
**A.** 16.2% and 18.7% and 19.8%

**Q.** And the viability, T/C (compound 10 µM)?
**A.** 18.1% and 20.2% and 22.3%

**Q.** And the IC50 (curve of compound)?
**A.** 58 nM and 79 nM and 132 nM
